This test deals with tumor tissues (breast). The test can be described thus: Immunohistopathology of tumor tissue after treatment. The class given is in vivo. The following applies: 48 hours post treatment, FIG. 7. The text has this:
After treatment with either cisplatin or the platinum peptide complex, tumor tissues (breast) were dissected and embedded in […]. The tumor tissue was fixed in […] and stained for cellular target expression.

As for “cis-1,2-DACH—Pt (II)-poly(glutamic/aspartic acid) [PDDP]”, the histopathological changes result is “marked necrosis and apoptosis”.

For the compound `[NH2][Pt]([NH2])([Cl])[Cl]` [CDDP, cisplatin], the histopathological changes entry is “marked necrosis and apoptosis”.

Source of the values: patent US20030109432A1, “Anticancer polypeptide-metal complexes and compositions, methods of making, and methods of using same” (priority 2001, published 2003).
